# Reference: PubChem BioAssay (NCI)
#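 Cultured in 96-well plates, cells were exposed to test compound for 48 hours across five concentrations. TGI: total growth inhibition.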
# Tests used:
# Assay in all cases: NCI tumour cell line growth inhibition, 48 h
# TK-10 renal = tested on: TK-10 renal
# CCRF-CEM leukemia = tested on: CCRF-CEM leukemia
# UO-31 renal = tested on: UO-31 renal
# HOP-62 NSCLC = tested on: HOP-62 NSCLC
# HCT-15 colon = tested on: HCT-15 colon
# SNB-78 CNS = tested on: SNB-78 CNS
# COLO 205 colon = tested on: COLO 205 colon
# A498 renal = tested on: A498 renal
# OVCAR-5 ovarian = tested on: OVCAR-5 ovarian
# HCT-116 colon = tested on: HCT-116 colon
# HOP-18 NSCLC = tested on: HOP-18 NSCLC
# OVCAR-8 ovarian = tested on: OVCAR-8 ovarian
# SK-OV-3 ovarian = tested on: SK-OV-3 ovarian
# RXF-631 renal = tested on: RXF-631 renal
# HL-60(TB) leukemia = tested on: HL-60(TB) leukemia
# NCI-H522 lung = tested on: NCI-H522 lung
# LOX IMVI melanoma = tested on: LOX IMVI melanoma
# UACC-257 melanoma = tested on: UACC-257 melanoma
# HT29 colon = tested on: HT29 colon
# U251 CNS = tested on: U251 CNS
# HCC-2998 colon = tested on: HCC-2998 colon
# M14 melanoma = tested on: M14 melanoma
# OVCAR-3 ovarian = tested on: OVCAR-3 ovarian
# SF-268 CNS = tested on: SF-268 CNS
# LXFL 529 NSCLC = tested on: LXFL 529 NSCLC
# KM20L2 colon = tested on: KM20L2 colon
# SF-295 CNS = tested on: SF-295 CNS
# UACC-62 melanoma = tested on: UACC-62 melanoma
# NCI-H460 lung = tested on: NCI-H460 lung
# RPMI-8226 leukemia = tested on: RPMI-8226 leukemia
# NCI-H23 lung = tested on: NCI-H23 lung
# ACHN renal = tested on: ACHN renal
# IGROV1 ovarian = tested on: IGROV1 ovarian
# 786-0 renal = tested on: 786-0 renal
# DMS 273 small cell lung = tested on: DMS 273 small cell lung
# A549 NSCLC = tested on: A549 NSCLC
# SNB-19 CNS = tested on: SNB-19 CNS
# OVCAR-4 ovarian = tested on: OVCAR-4 ovarian
# NCI-H226 lung = tested on: NCI-H226 lung
# SW-620 colon = tested on: SW-620 colon
# SN12C renal = tested on: SN12C renal
# M19-MEL melanoma = tested on: M19-MEL melanoma
# KM12 colon = tested on: KM12 colon
# DMS 114 small cell lung = tested on: DMS 114 small cell lung
# MALME-3M melanoma = tested on: MALME-3M melanoma
# DLD-1 colon = tested on: DLD-1 colon
# MOLT-4 leukemia = tested on: MOLT-4 leukemia
# SF-539 CNS = tested on: SF-539 CNS
# SK-MEL-28 melanoma = tested on: SK-MEL-28 melanoma
# SK-MEL-5 melanoma = tested on: SK-MEL-5 melanoma
# RXF 393 renal = tested on: RXF 393 renal
# HOP-92 NSCLC = tested on: HOP-92 NSCLC
# K-562 leukemia = tested on: K-562 leukemia
# EKVX NSCLC = tested on: EKVX NSCLC
# SK-MEL-2 melanoma = tested on: SK-MEL-2 melanoma
# CAKI-1 renal = tested on: CAKI-1 renal
# SNB-75 CNS = tested on: SNB-75 CNS
# SR leukemia = tested on: SR leukemia
# P388/ADR leukemia = tested on: P388/ADR leukemia
# XF 498 CNS = tested on: XF 498 CNS
# MCF7 breast = tested on: MCF7 breast
# P388 leukemia = tested on: P388 leukemia
# SN12K1 renal = tested on: SN12K1 renal
# NCI/ADR-RES ovarian = tested on: NCI/ADR-RES ovarian
compound,measurement,setting,value
Cc1ccc(-c2cc(-c3ccccc3)c(C#N)c(=O)n2C2OC(CO)C(O)C(O)C2O)cc1 (stereo unspecified),TGI,TK-10 renal,> 100 µM
same,TGI,CCRF-CEM leukemia,> 100 µM
same,TGI,UO-31 renal,> 100 µM
same,TGI,HOP-62 NSCLC,> 100 µM
same,TGI,HCT-15 colon,> 100 µM
same,TGI,SNB-78 CNS,> 100 µM
same,TGI,COLO 205 colon,> 100 µM
same,TGI,A498 renal,> 100 µM
same,TGI,OVCAR-5 ovarian,> 100 µM
same,TGI,HCT-116 colon,> 100 µM
same,TGI,HOP-18 NSCLC,> 100 µM
same,TGI,OVCAR-8 ovarian,> 100 µM
same,TGI,SK-OV-3 ovarian,> 100 µM
same,TGI,RXF-631 renal,> 100 µM
same,TGI,HL-60(TB) leukemia,> 100 µM
same,TGI,NCI-H522 lung,> 100 µM
same,TGI,LOX IMVI melanoma,> 100 µM
same,TGI,UACC-257 melanoma,> 100 µM
same,TGI,HT29 colon,> 100 µM
same,TGI,U251 CNS,> 100 µM
same,TGI,HCC-2998 colon,> 100 µM
same,TGI,M14 melanoma,> 100 µM
same,TGI,OVCAR-3 ovarian,> 100 µM
same,TGI,SF-268 CNS,> 100 µM
same,TGI,LXFL 529 NSCLC,> 100 µM
same,TGI,KM20L2 colon,> 100 µM
same,TGI,SF-295 CNS,> 100 µM
same,TGI,UACC-62 melanoma,> 100 µM
same,TGI,NCI-H460 lung,> 100 µM
same,TGI,RPMI-8226 leukemia,> 100 µM
same,TGI,NCI-H23 lung,> 100 µM
same,TGI,ACHN renal,> 100 µM
same,TGI,IGROV1 ovarian,> 100 µM
same,TGI,786-0 renal,> 100 µM
same,TGI,DMS 273 small cell lung,> 100 µM
same,TGI,A549 NSCLC,> 100 µM
same,TGI,SNB-19 CNS,> 100 µM
same,TGI,OVCAR-4 ovarian,> 100 µM
same,TGI,NCI-H226 lung,> 100 µM
same,TGI,SW-620 colon,> 100 µM
same,TGI,SN12C renal,> 100 µM
same,TGI,M19-MEL melanoma,> 100 µM
same,TGI,KM12 colon,> 100 µM
same,TGI,DMS 114 small cell lung,> 100 µM
same,TGI,MALME-3M melanoma,> 100 µM
same,TGI,DLD-1 colon,> 100 µM
same,TGI,MOLT-4 leukemia,85.3 µM
same,TGI,SF-539 CNS,> 100 µM
same,TGI,SK-MEL-28 melanoma,> 100 µM
same,TGI,SK-MEL-5 melanoma,> 100 µM
same,TGI,RXF 393 renal,> 100 µM
same,TGI,HOP-92 NSCLC,> 100 µM
same,TGI,K-562 leukemia,> 100 µM
same,TGI,EKVX NSCLC,> 100 µM
Cc1cccc(-n2c(=S)[nH]c3c(sc(=O)n3-c3ccccc3C)c2=O)c1,TGI,CCRF-CEM leukemia,> 100 µM
same,TGI,UO-31 renal,> 100 µM
same,TGI,HOP-62 NSCLC,> 100 µM
same,TGI,HCT-15 colon,> 100 µM
same,TGI,SNB-78 CNS,> 100 µM
same,TGI,SK-MEL-2 melanoma,> 100 µM
same,TGI,COLO 205 colon,> 100 µM
same,TGI,A498 renal,> 100 µM
same,TGI,OVCAR-5 ovarian,> 100 µM
same,TGI,HCT-116 colon,> 100 µM
same,TGI,HOP-18 NSCLC,> 100 µM
same,TGI,OVCAR-8 ovarian,> 100 µM
same,TGI,SK-OV-3 ovarian,> 100 µM
same,TGI,RXF-631 renal,> 100 µM
same,TGI,HL-60(TB) leukemia,> 100 µM
same,TGI,NCI-H522 lung,> 100 µM
same,TGI,UACC-257 melanoma,> 100 µM
same,TGI,HT29 colon,> 100 µM
same,TGI,U251 CNS,> 100 µM
same,TGI,HCC-2998 colon,> 100 µM
same,TGI,M14 melanoma,> 100 µM
same,TGI,OVCAR-3 ovarian,> 100 µM
same,TGI,SF-268 CNS,> 100 µM
same,TGI,LXFL 529 NSCLC,> 100 µM
same,TGI,KM20L2 colon,> 100 µM
same,TGI,SF-295 CNS,> 100 µM
same,TGI,UACC-62 melanoma,> 100 µM
same,TGI,NCI-H460 lung,> 100 µM
same,TGI,RPMI-8226 leukemia,> 100 µM
same,TGI,NCI-H23 lung,> 100 µM
same,TGI,CAKI-1 renal,> 100 µM
same,TGI,ACHN renal,> 100 µM
same,TGI,IGROV1 ovarian,> 100 µM
same,TGI,786-0 renal,> 100 µM
same,TGI,DMS 273 small cell lung,> 100 µM
same,TGI,A549 NSCLC,> 100 µM
same,TGI,SNB-19 CNS,> 100 µM
same,TGI,OVCAR-4 ovarian,> 100 µM
same,TGI,SNB-75 CNS,> 100 µM
same,TGI,NCI-H226 lung,> 100 µM
same,TGI,SW-620 colon,> 100 µM
same,TGI,SN12C renal,> 100 µM
same,TGI,SR leukemia,> 100 µM
same,TGI,M19-MEL melanoma,> 100 µM
same,TGI,KM12 colon,> 100 µM
same,TGI,DMS 114 small cell lung,> 100 µM
same,TGI,MALME-3M melanoma,> 100 µM
same,TGI,DLD-1 colon,> 100 µM
same,TGI,MOLT-4 leukemia,> 100 µM
same,TGI,SF-539 CNS,> 100 µM
same,TGI,SK-MEL-28 melanoma,> 100 µM
same,TGI,SK-MEL-5 melanoma,> 100 µM
same,TGI,RXF 393 renal,> 100 µM
same,TGI,HOP-92 NSCLC,> 100 µM
same,TGI,K-562 leukemia,> 100 µM
same,TGI,EKVX NSCLC,> 100 µM
CCCCOc1ccc(OCCCCCCCCCC[N+](C)(C)C)cc1,TGI,CCRF-CEM leukemia,3.87 µM
same,TGI,UO-31 renal,23 µM
same,TGI,HOP-62 NSCLC,13.7 µM
same,TGI,HCT-15 colon,30.5 µM
same,TGI,SNB-78 CNS,9.78 µM
same,TGI,SK-MEL-2 melanoma,5 µM
same,TGI,COLO 205 colon,2.68 µM
same,TGI,A498 renal,28.6 µM
same,TGI,OVCAR-5 ovarian,17.2 µM
same,TGI,HCT-116 colon,9.31 µM
same,TGI,HOP-18 NSCLC,13.7 µM
same,TGI,OVCAR-8 ovarian,22 µM
same,TGI,SK-OV-3 ovarian,10.8 µM
same,TGI,HL-60(TB) leukemia,1.49 µM
same,TGI,P388/ADR leukemia,17.8 µM
same,TGI,NCI-H522 lung,5.22 µM
same,TGI,LOX IMVI melanoma,3.81 µM
same,TGI,UACC-257 melanoma,17.8 µM
same,TGI,HT29 colon,2.46 µM
same,TGI,U251 CNS,9.16 µM
same,TGI,XF 498 CNS,4.57 µM
same,TGI,HCC-2998 colon,6.28 µM
same,TGI,OVCAR-3 ovarian,7.89 µM
same,TGI,SF-268 CNS,13.9 µM
same,TGI,KM20L2 colon,3.87 µM
same,TGI,SF-295 CNS,19.9 µM
same,TGI,MCF7 breast,14.8 µM
same,TGI,UACC-62 melanoma,15.7 µM
same,TGI,NCI-H460 lung,12.7 µM
same,TGI,RPMI-8226 leukemia,2.33 µM
same,TGI,NCI-H23 lung,11 µM
same,TGI,CAKI-1 renal,16.6 µM
same,TGI,IGROV1 ovarian,3.52 µM
same,TGI,P388 leukemia,3.06 µM
same,TGI,DMS 273 small cell lung,4.25 µM
same,TGI,A549 NSCLC,15.2 µM
same,TGI,SNB-19 CNS,23.3 µM
same,TGI,OVCAR-4 ovarian,14.8 µM
same,TGI,SNB-75 CNS,6.44 µM
same,TGI,NCI-H226 lung,15.2 µM
same,TGI,SW-620 colon,14.9 µM
same,TGI,SN12C renal,12.2 µM
same,TGI,SN12K1 renal,8.54 µM
same,TGI,KM12 colon,2.97 µM
same,TGI,DMS 114 small cell lung,6.75 µM
same,TGI,MALME-3M melanoma,16 µM
same,TGI,DLD-1 colon,21.5 µM
same,TGI,MOLT-4 leukemia,3.27 µM
same,TGI,NCI/ADR-RES ovarian,> 100 µM
same,TGI,SF-539 CNS,14.3 µM
same,TGI,SK-MEL-28 melanoma,18 µM
same,TGI,SK-MEL-5 melanoma,3.81 µM
same,TGI,RXF 393 renal,3.34 µM
same,TGI,HOP-92 NSCLC,3.65 µM
same,TGI,K-562 leukemia,15.4 µM
same,TGI,EKVX NSCLC,46 µM
